Laboratory results: ChEMBL document CHEMBL1201862, “PubChem BioAssay data set” (2004)
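Dose response: 5 concentrations. Exposure: 48 h. Format: 96-well plates. Endpoint: linear interpolation; highest concentration if not reached. The concentration for 50% growth inhibition is given as GI50.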 Active and inactive are the calls of the source. No stated cut-off is given here; in the data, active = GI50 up to about 1.1 µM and inactive = higher.

Experiments:
Test in all cases: NCI-60 cell line screen, 48 h
SNB-19 = system: SNB-19
HOP-62 = system: HOP-62
SNB-75 = system: SNB-75
NCI-H460 = system: NCI-H460
OVCAR-8 = system: OVCAR-8
HL-60 = system: HL-60
UACC-257 = system: UACC-257
CCRF-CEM = system: CCRF-CEM
SK-MEL-28 = system: SK-MEL-28
IGROV-1 = system: IGROV-1
SK-MEL-2 = system: SK-MEL-2
M14 = system: M14
HOP-92 = system: HOP-92
Malme-3M = system: Malme-3M
MOLT-4 = system: MOLT-4
EKVX = system: EKVX
OVCAR-3 = system: OVCAR-3
U-251 = system: U-251
RXF 393 = system: RXF 393

Measured: GI50

CCOC(=O)Nc1ccc(S(=O)(=O)OC)cc1.CCOC(=O)Nc1ccc(S(=O)(=O)OC)cc1.Nc1ncnc2c1ncn2C1OC(CO)C(O)C1O (stereo unspecified)
inactive: SNB-19 > 100 µM | HOP-62 > 100 µM | SNB-75 > 100 µM | NCI-H460 > 100 µM | OVCAR-8 > 100 µM | HL-60 21.8 µM | UACC-257 39.6 µM | CCRF-CEM 20.6 µM | SK-MEL-28 > 100 µM | IGROV-1 > 100 µM | SK-MEL-2 > 100 µM | M14 > 100 µM | HOP-92 > 100 µM | Malme-3M > 100 µM | MOLT-4 > 100 µM | EKVX > 100 µM | OVCAR-3 > 100 µM

COc1cccc2cc(C)c(C(=O)c3ccccc3)nc12
inactive: SNB-19 > 100 µM | HOP-62 > 100 µM | SNB-75 91.2 µM | OVCAR-8 > 100 µM | UACC-257 82.2 µM | CCRF-CEM > 100 µM | SK-MEL-28 > 100 µM | IGROV-1 > 100 µM | SK-MEL-2 > 100 µM | M14 > 100 µM | U-251 > 100 µM | Malme-3M > 100 µM | MOLT-4 > 100 µM | EKVX > 100 µM | RXF 393 > 100 µM | OVCAR-3 > 100 µM

O=C(NO)C12C3C4C1C1C2C3C41C(=O)NO (stereo unspecified)
inactive: SNB-19 > 100 µM | HOP-62 > 100 µM | SNB-75 > 100 µM | NCI-H460 > 100 µM | OVCAR-8 > 100 µM | HL-60 > 100 µM | CCRF-CEM > 100 µM | SK-MEL-28 > 100 µM | SK-MEL-2 > 100 µM | M14 > 100 µM | U-251 > 100 µM | Malme-3M > 100 µM | MOLT-4 > 100 µM | EKVX > 100 µM | RXF 393 > 100 µM | OVCAR-3 > 100 µM

COCN1COCN(C)C1=O
inactive: SNB-19 > 100 µM | HOP-62 > 100 µM | SNB-75 > 100 µM | NCI-H460 > 100 µM | OVCAR-8 > 100 µM | UACC-257 > 100 µM | CCRF-CEM > 100 µM | SK-MEL-28 > 100 µM | IGROV-1 > 100 µM | SK-MEL-2 > 100 µM | M14 > 100 µM | U-251 > 100 µM | HOP-92 > 100 µM | Malme-3M > 100 µM | EKVX > 100 µM | OVCAR-3 > 100 µM

CC(C)(C)C(=O)c1c(O)c2ccccc2c2ccccc2c1=O
inactive: SNB-19 > 100 µM | HOP-62 82.2 µM | SNB-75 30.9 µM | NCI-H460 > 100 µM | OVCAR-8 82.6 µM | HL-60 > 100 µM | UACC-257 > 100 µM | CCRF-CEM > 100 µM | SK-MEL-28 58.7 µM | SK-MEL-2 > 100 µM | M14 95.3 µM | U-251 33.3 µM | HOP-92 32.4 µM | MOLT-4 > 100 µM | EKVX > 100 µM | OVCAR-3 59.2 µM
